In ChEMBL document CHEMBL4138232, “O2-(2,4-dinitrophenyl)diazeniumdiolates derivatives: Design, synthesis, cytotoxic evaluation and reversing MDR in MCF-7/ADR cells” (Eur J Med Chem, 2018):

Experiments:
[1] = species on record: Homo sapiens; test: Inhibition of MDR in human MCF7/ADR cells assessed as potentiation of adriamycin-induced antiproliferative activity by measuring fold reduction in adriamycin IC50 at 10 uM after 48 hrs by MTT assay; type: cell-based
[2] = test system: U2OS; test: Antiproliferative activity against human U2OS cells after 48 hrs by MTT assay relative to control; type: functional, cell-based
[3] = Selectivity ratio of IC50 for human A549 cells to IC50 for human MDA-MB-231 cells; type: functional
[4] = molecular target: T1, Glutathione S-transferase P (Homo sapiens, UniProt P09211); test: Prodrug activation in human HCT116 cells assessed as GST-Pi-mediated NO release at 5 uM after 24 hrs by nitrate reductase assay; type: cell-based
[5] = Selectivity ratio of IC50 for human U2OS cells to IC50 for human MDA-MB-231 cells; type: functional
[6] = molecular target: T1, Glutathione S-transferase P; test: Prodrug activation in human HCT116 cells assessed as GST-Pi-mediated NO release at 5 uM after 24 hrs in presence of NO scavenger carboxy-PTIO by nitrate reductase assay; type: cell-based
[7] = molecular target: T1, Glutathione S-transferase P; test: Prodrug activation in human HCT116 cells assessed as GST-Pi-mediated NO release at 5 uM after 24 hrs in presence of GST-Pi inhibitor etacrynic acid by nitrate reductase assay; type: cell-based
[8] = Selectivity ratio of IC50 for human MCF10A cells to IC50 for human MDA-MB-231 cells; type: toxicity; conditions: MCF10A cells versus MDA-MB-231 cells, read-out: Ratio IC50
[9] = Cytotoxicity against ADR-sensitive human MCF7 cells assessed as inhibition of cell viability at 10 uM after 48 hrs by MTT assay relative to control; type: cell-based; conditions: read-out: INH
[10] = test system: MDA-MB-231; test: Antiproliferative activity against human MDA-MB-231 cells after 48 hrs by MTT assay relative to control; type: functional, cell-based; conditions: MDA-MB-231, 48 h
[11] = test system: HCT-116; test: Antiproliferative activity against human HCT116 cells after 48 hrs by MTT assay relative to control; type: functional, cell-based; conditions: HCT-116, 48 h
[12] = test system: MCF7; test: Cytotoxicity against ADR-sensitive human MCF7 cells assessed as inhibition of cell viability after 48 hrs by MTT assay; type: cell-based; conditions: MCF7, 48 h
[13] = test system: A549; test: Antiproliferative activity against human A549 cells after 48 hrs by MTT assay relative to control; type: functional, cell-based; conditions: A549, 48 h
[14] = Selectivity ratio of IC50 for human HCT116 cells to IC50 for human MDA-MB-231 cells; type: functional
[15] = test system: HCT-116; test: Cytotoxicity against human HCT116 cells overexpressing GST-Pi assessed as inhibition of cell viability at 10 uM after 48 hrs by MTT assay relative to control; type: functional; conditions: HCT-116, 48 h
[16] = test system: MCF-10A; test: Antiproliferative activity against human MCF10A cells after 48 hrs by MTT assay relative to control; type: cell-based
[17] = molecular target: T1, Glutathione S-transferase P; test: Prodrug activation in human HCT116 cells assessed as GST-Pi-mediated NO release at 5 uM by nitrate reductase assay; type: cell-based

T1 sequence (P09211 whole entry): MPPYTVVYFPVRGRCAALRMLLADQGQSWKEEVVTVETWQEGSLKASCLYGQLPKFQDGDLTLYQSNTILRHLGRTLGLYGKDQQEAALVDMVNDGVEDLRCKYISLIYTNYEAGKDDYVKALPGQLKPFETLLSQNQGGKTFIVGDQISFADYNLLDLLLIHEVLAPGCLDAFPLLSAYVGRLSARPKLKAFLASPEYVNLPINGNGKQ

Compound | fold change (FC) [1] | IC50 [2] | Ratio IC50 [3] | Drug metabolism [4] | Ratio IC50 [5] | Drug metabolism [6] | Drug metabolism [7] | selectivity ratio [8] | cytotoxicity at 48 h, 10 µM [9] | IC50 [10] | IC50 [11] | IC50 [12] | IC50 [13] | Ratio IC50 [14] | inhibition at 10 µM [15] | IC50 [16] | Drug metabolism [17]
COc1ccc(C2CC(c3cccc(Oc4cc(O/N=[N+](\[O-])N5CCCCC5)c([N+](=O)[O-])cc4[N+](=O)[O-])c3)=NN2C(C)=O)cc1OC (stereo not drawn) | 71.7 | 6.74 µM | 0.7 | Metabolite_Detected | 4.9 | Metabolite_Notdetected | Metabolite_Notdetected | 13.6 | 17.2% | 1.37 µM | 1.43 µM | 25.2 µM | 1.02 µM | 1 | 80.9% | 18.7 µM | 
COc1ccc(/C=C/C(=O)c2cccc(Oc3cc(O/N=[N+](\[O-])N4CCOCC4)c([N+](=O)[O-])cc3[N+](=O)[O-])c2)cc1OC | 66.3 | 5.77 µM | 1 | Metabolite_Detected | 0.9 | Metabolite_Notdetected | Metabolite_Notdetected | 10.2 | 18% | 6.1 µM | 4.59 µM | 28.3 µM | 5.99 µM | 0.7 | 75.6% | 62.1 µM | 
CC(=O)N1N=C(c2cccc(Oc3cc(O/N=[N+](\[O-])N4CCOCC4)c([N+](=O)[O-])cc3[N+](=O)[O-])c2)CC1c1ccc(N(C)C)cc1 (stereo not drawn) | 33.4 | 2.46 µM | 0.7 |  | 0.8 | Metabolite_Notdetected | Metabolite_Notdetected | 5.6 | 21.9% | 2.9 µM | 2.7 µM | 22 µM | 1.97 µM | 0.9 | 78.3% | 16.4 µM | Dose-dependent effect
COc1ccc(C2CC(c3cccc(Oc4cc(O/N=[N+](\[O-])N5CCOCC5)c([N+](=O)[O-])cc4[N+](=O)[O-])c3)=NN2C(C)=O)cc1 (stereo not drawn) | 56.6 | 3.69 µM | 1.3 |  | 1.7 |  |  | 6.1 | 21.2% | 2.11 µM | 5.58 µM | 31.9 µM | 2.86 µM | 2.6 | 79.9% | 12.9 µM | Dose-dependent effect
CC(=O)N1N=C(c2cccc(Oc3cc(O/N=[N+](\[O-])N4CCCCC4)c([N+](=O)[O-])cc3[N+](=O)[O-])c2)CC1c1ccc(C)cc1 (stereo not drawn) | 18 | 9.43 µM | 1.6 | Metabolite_Detected | 2.1 | Metabolite_Notdetected | Metabolite_Notdetected | 15.5 | 5.16% | 4.57 µM | 1.3 µM | 22.8 µM | 7.31 µM | 0.3 | 75.9% | 70.9 µM | 
CC(=O)N1N=C(c2cccc(Oc3cc(O/N=[N+](\[O-])N4CCOCC4)c([N+](=O)[O-])cc3[N+](=O)[O-])c2)CC1c1ccc(C)cc1 (stereo not drawn) | 49.7 | 3.86 µM | 0.5 |  | 1 | Metabolite_Notdetected | Metabolite_Notdetected | 3.1 | 20.2% | 3.85 µM | 4.44 µM | 21.6 µM | 1.87 µM | 1.1 | 77.8% | 11.9 µM | Dose-dependent effect
CCCCOc1ccc(C2CC(c3cccc(Oc4cc(O/N=[N+](\[O-])N5CCOCC5)c([N+](=O)[O-])cc4[N+](=O)[O-])c3)=NN2C(C)=O)cc1OC (stereo not drawn) | 63 | 2.19 µM | 0.3 | Metabolite_Detected | 0.5 | Metabolite_Notdetected | Metabolite_Notdetected | 3.4 | 23.6% | 4.4 µM | 1.86 µM | 19.2 µM | 1.46 µM | 0.4 | 75.7% | 15.2 µM | Dose-dependent effect
COc1cc(C2CC(c3cccc(Oc4cc(O/N=[N+](\[O-])N5CCOCC5)c([N+](=O)[O-])cc4[N+](=O)[O-])c3)=NN2C(C)=O)cc(OC)c1OC (stereo not drawn) | 1.53 | 6.13 µM | 4.2 |  | 4.2 |  |  | 41.2 | 13.3% | 1.44 µM | 6.46 µM | 44.3 µM | 6.11 µM | 6.5 | 76.2% | 59.4 µM | Dose-dependent effect
CC(=O)N1N=C(c2cccc(Oc3cc(O/N=[N+](\[O-])N4CCCCC4)c([N+](=O)[O-])cc3[N+](=O)[O-])c2)CC1c1ccc(N(C)C)cc1 (stereo not drawn) | 26.6 | 6.3 µM | 1.4 | Metabolite_Detected | 1.2 | Metabolite_Notdetected | Metabolite_Notdetected | 18 | 13.4% | 5.29 µM | 3.43 µM | 20.2 µM | 7.66 µM | 0.6 | 81.3% | 95.3 µM | 
COc1ccc(C2CC(c3cccc(Oc4cc(O/N=[N+](\[O-])N5CCOCC5)c([N+](=O)[O-])cc4[N+](=O)[O-])c3)=NN2C(C)=O)cc1OC (stereo not drawn) | 14.3 | 2.46 µM | 2.3 | Metabolite_Detected | 3.7 | Metabolite_Notdetected | Metabolite_Notdetected | 15.3 | 13% | 0.66 µM | 1.27 µM | 22.7 µM | 1.54 µM | 1.9 | 81.2% | 10.1 µM | Dose-dependent effect
